Common to all, as to format: cell-based
For one experiment, the system named is E. coli. Kind of experiment: MIC by broth microdilution method (resazurin end point). To be noted: Escherichia coli, 24 h at 37 °C. In a few lines: (§1)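 Twofold dilutions of fluorene derivatives (500–7.8 μg/mL) in Mueller–Hinton broth, inoculum from 0.5 McFarland suspension per CLSI 2012. Resazurin added, 1–4 h at 37 °C; MIC is lowest concentration preventing blue-to-pink change.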
In general terms: Broth dilution looks for growth in wells or tubes with falling amounts of substance.

In another experiment the test system is K. pneumoniae. Described as above. To be noted: Klebsiella pneumoniae, 24 h at 37 °C. Put shortly: as §1
The subject of experiment [1] is Escherichia coli (E. coli), multidrug resistant clinical isolate. Kind of experiment: agar well diffusion assay. To be noted: 24 h, 500 µg/mL of tested compound. Put shortly:
(§2)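 Multidrug-resistant clinical isolates swabbed on Mueller–Hinton agar at about 1–5 × 10^5 CFU/mL; 0.5 cm wells received 50 μL compound at 500 μg/mL in 1% DMSO. Incubation 24 h, 37 °C for bacteria and C. albicans, 25 °C for Aspergillus; inhibition zone diameter measured in mm.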

For experiment [2], the system named is A549 human lung cancer cells. Briefly: cell viability assay (MTT). Conditions: 24 h; for viability at 1 µg/mL: read-out: Validity (%) for sample concentrations (µg/mL) 1; for viability at 10 µg/mL: read-out: Validity (%) for sample concentrations (µg/mL) 10; for viability at 31.25 µg/mL: read-out: Validity (%) for sample concentrations (µg/mL) 31.25; for viability at 62.5 µg/mL: 62.50 µg/mL, read-out: Validity (%) for sample concentrations (µg/mL) 62.50; for viability at 125 µg/mL: read-out: Validity (%) for sample concentrations (µg/mL) 125; for viability at 250 µg/mL: read-out: Validity (%) for sample concentrations (µg/mL) 250; for viability at 500 µg/mL: read-out: Validity (%) for sample concentrations (µg/mL) 500; for viability at 1000 µg/mL: read-out: Validity (%) for sample concentrations (µg/mL) 1000.

In experiment [3] the test system is methicillin-resistant Staphylococcus aureus (MRSA). Briefly: agar well diffusion assay. Conditions: 500 µg/mL of tested compound, 24 h. In a few lines:
as §2

Experiment [4] concerns Streptococcus pneumoniae (S. pneumoniae), multidrug resistant clinical isolate. Kind of experiment: agar well diffusion assay. To be noted: S. pneumoniae; 500 µg/mL of tested compound; 24 h. In a few lines: as §2
For a further experiment, the system named is P. aeruginosa. Kind of experiment: MIC by broth microdilution method (resazurin end point). Conditions: Pseudomonas aeruginosa, 24 h at 37 °C. Put shortly: as §1

Molecules are shown by their SMILES. Values after ≈ are worked out from the molar mass of the structure shown.

A word on the MIC: it is the least concentration at which growth counts as inhibited. The low end stands for a more susceptible organism, the high end for a less susceptible organism. In general, zone of inhibition refers to the extent of the growth-free halo in a diffusion test. A low value points to a weaker effect on the plate. By IC50 is commonly meant the point on the concentration scale where inhibition reaches its midpoint. Low readings indicate inhibition by little substance, high ones a need for much substance. Regarding `O=C1C(Cl)C(c2ccc(Cl)cc2)N1c1nc(-c2cc(Cl)cc3c2-c2ccc(Cl)cc2C3)cs1` (centres unmarked) [6c, 3-Chloro-4-(4-chlorophenyl)-1-(4-(2,7-dichloro-9H-fluoren-4-yl)thiazol-2-yl)azetidin-2-one], it took 62.5 µg/mL (≈ 117 µM) to inhibit growth in the experiment on E. coli (MIC). For the same compound, in the experiment with K. pneumoniae, the lowest concentration to inhibit growth (MIC) was 125 µg/mL (≈ 235 µM). The zone of inhibition at 500 µg/mL in experiment [1] worked out at 15 mm. Moreover, in experiment [2], the viability at 1 µg/mL was determined as 92.4%, the viability at 10 µg/mL came out at 80.7%, the viability at 31.25 µg/mL was found to be 59.8% and the viability at 62.5 µg/mL came out at 54.2%. Besides, in experiment [2], the viability at 125 µg/mL is 31.3%, the viability at 250 µg/mL stood at 25.1%, the viability at 500 µg/mL stood at 19.7% and the viability at 1000 µg/mL was determined as 17.7%. Also, half-maximal inhibition in experiment [2] (IC50) required 85 µg/mL (≈ 160 µM).
Consider `O=C1C(Cl)C(c2ccc(Br)cc2)N1c1nc(-c2cc(Cl)cc3c2-c2ccc(Cl)cc2C3)cs1` (centres unmarked) [6d, 4-(4-Bromophenyl)-3-chloro-1-(4-(2,7-dichloro-9H-fluoren-4-yl)thiazol-2-yl)azetidin-2-one], for which the “Mean zone of inhibition” value in experiment [3] is reported as “no activity”. Also, the “Mean zone of inhibition” value in experiment [4] is on record as “no activity”. In experiment [2], the viability at 1 µg/mL was 97.9%, the viability at 10 µg/mL turned out to be 92.6%, the viability at 31.25 µg/mL was found to be 77.2% and the viability at 62.5 µg/mL turned out to be 67.3%. In experiment [2], the viability at 125 µg/mL stood at 49%, the viability at 250 µg/mL came out at 24.6%, the viability at 500 µg/mL was 20.4% and the viability at 1000 µg/mL is 19.4%. This compound returned a concentration for half-maximal inhibition (IC50) in experiment [2] of 117 µg/mL (≈ 203 µM).
Turning to `O=C1C(Cl)C(c2cccs2)N1c1nc(-c2cc(Cl)cc3c2-c2ccc(Cl)cc2C3)cs1` (centres unmarked) [6k, 3-Chloro-1-(4-(2,7-dichloro-9H-fluoren-4-yl)thiazol-2-yl)-4-(thiophen-2-yl)azetidin-2-one], the minimum inhibitory concentration (MIC) with E. coli turned out to be 31.2 µg/mL (≈ 62 µM). The compound further returned an MIC against P. aeruginosa of 125 µg/mL (≈ 248 µM). The compound also had a zone of inhibition at 500 µg/mL in experiment [1] of 14 mm. In experiment [2], the viability at 1 µg/mL worked out at 90.8%, the viability at 10 µg/mL worked out at 80.8%, the viability at 31.25 µg/mL was 76% and the viability at 62.5 µg/mL was found to be 70.6%. In experiment [2], the viability at 125 µg/mL was 55.4%, the viability at 250 µg/mL came out at 39.8%, the viability at 500 µg/mL was found to be 28.7% and the viability at 1000 µg/mL came to 23%. Moreover, in experiment [2], the IC50 was 203 µg/mL (≈ 403 µM).

(Values after PMC7315563, “Bioactive fluorenes. Part III: 2,7-dichloro-9H-fluorene-based thiazolidinone and azetidinone analogues as anticancer and antimicrobial against multidrug resistant strains agents” (BMC Chemistry, 2020).)
